Results from patent publication US12716889B2, “Microfluidic-based device for in vivo wound infection model and uses thereof” (The Hong Kong Polytechnic University, priority 2021, dated 2026).

Test system: P. aeruginosa (PAO1) biofilm
Experiment: Viable cell counts (CFU) from biofilm on infected tail wound of Medaka fish in the MicroFish device
Format: in vivo, Pseudomonas aeruginosa
Details: ciprofloxacin monotherapy at 0, 0.05, 1, 5, 10 μg ml^−1 added to fish-microbe co-cultures; FIG. 5E
Protocol: After harvesting the tails from euthanized animals after bacterial infection, the tissues were resuspended in 100 μl sterilized 0.9% (w/v) NaCl saline and ground manually by pellet pestle in 1.5-ml-microcentrifuge tubes (JET BIOFIL, China) until homogenization. The homogenized samples were diluted serially in 0.9% NaCl and then spread on centrimide agar (selective only for Pseudomonad growth) (Sigma-Aldrich, Germany). After incubation at 37° C. for 16 hrs, the colonies grown on the plates were enumerated. The CFU ml^−1 was tabulated by colony number×dilution factor[…]. Experiments were performed in triplicates, and the results are shown as mean±S.D.

## O=C(O)c1cn(C2CC2)c2cc(N3CCNCC3)c(F)cc2c1=O [ciprofloxacin]
  biofilm viability (viable cell counts, CFU): lower biofilm viability
